We go through five compounds from patent US20220153751A1, “BIFUNCTIONAL COMPOUNDS” (BioTheryX, Inc., priority 2018, published 2022).

The term Dmax denotes the largest share of the target that was removed. Higher therefore signals deep degradation. A word on the fold induction: it is the ratio of treated to control signal. A word on the inhibition: it is the change of the read-out against control, counted positive when it falls. What is called viability is a read-out of living cells in per cent, often relative to untreated cells.

Some results are limits rather than exact numbers.

Holding throughout (assay type): cell-based
In one assay the target is T1, IKAROS (Homo sapiens, UniProt Q13422+Q96SW2).
T1 construct: endogenous in cells; host or cells: MV-4-11
T1 sequence (Q13422 whole entry): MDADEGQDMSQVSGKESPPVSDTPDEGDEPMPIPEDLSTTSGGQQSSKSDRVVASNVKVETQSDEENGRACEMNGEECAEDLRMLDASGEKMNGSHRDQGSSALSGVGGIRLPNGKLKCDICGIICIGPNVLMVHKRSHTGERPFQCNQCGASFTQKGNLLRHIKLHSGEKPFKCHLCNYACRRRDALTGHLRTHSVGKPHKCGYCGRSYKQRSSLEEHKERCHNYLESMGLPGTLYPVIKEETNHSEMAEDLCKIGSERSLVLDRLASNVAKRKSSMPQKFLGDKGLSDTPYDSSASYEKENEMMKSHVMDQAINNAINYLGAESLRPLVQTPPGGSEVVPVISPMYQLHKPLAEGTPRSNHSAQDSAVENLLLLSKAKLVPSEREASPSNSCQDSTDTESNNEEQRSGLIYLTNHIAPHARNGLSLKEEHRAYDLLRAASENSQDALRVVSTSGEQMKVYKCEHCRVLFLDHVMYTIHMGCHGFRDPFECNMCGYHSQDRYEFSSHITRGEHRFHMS
T1 sequence (Q96SW2 whole entry): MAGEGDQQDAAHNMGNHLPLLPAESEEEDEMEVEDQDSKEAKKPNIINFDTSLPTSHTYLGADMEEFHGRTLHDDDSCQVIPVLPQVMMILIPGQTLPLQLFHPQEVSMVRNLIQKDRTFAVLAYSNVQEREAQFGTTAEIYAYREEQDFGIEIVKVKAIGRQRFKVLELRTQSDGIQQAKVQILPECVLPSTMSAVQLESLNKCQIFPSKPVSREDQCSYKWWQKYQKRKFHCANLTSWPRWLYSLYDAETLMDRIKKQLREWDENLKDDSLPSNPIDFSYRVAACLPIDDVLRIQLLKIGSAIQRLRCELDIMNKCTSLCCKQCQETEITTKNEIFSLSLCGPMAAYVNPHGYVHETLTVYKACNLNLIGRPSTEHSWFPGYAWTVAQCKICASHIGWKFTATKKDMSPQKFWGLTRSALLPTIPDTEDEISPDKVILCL
T1 sequence (Q16531 whole entry partner): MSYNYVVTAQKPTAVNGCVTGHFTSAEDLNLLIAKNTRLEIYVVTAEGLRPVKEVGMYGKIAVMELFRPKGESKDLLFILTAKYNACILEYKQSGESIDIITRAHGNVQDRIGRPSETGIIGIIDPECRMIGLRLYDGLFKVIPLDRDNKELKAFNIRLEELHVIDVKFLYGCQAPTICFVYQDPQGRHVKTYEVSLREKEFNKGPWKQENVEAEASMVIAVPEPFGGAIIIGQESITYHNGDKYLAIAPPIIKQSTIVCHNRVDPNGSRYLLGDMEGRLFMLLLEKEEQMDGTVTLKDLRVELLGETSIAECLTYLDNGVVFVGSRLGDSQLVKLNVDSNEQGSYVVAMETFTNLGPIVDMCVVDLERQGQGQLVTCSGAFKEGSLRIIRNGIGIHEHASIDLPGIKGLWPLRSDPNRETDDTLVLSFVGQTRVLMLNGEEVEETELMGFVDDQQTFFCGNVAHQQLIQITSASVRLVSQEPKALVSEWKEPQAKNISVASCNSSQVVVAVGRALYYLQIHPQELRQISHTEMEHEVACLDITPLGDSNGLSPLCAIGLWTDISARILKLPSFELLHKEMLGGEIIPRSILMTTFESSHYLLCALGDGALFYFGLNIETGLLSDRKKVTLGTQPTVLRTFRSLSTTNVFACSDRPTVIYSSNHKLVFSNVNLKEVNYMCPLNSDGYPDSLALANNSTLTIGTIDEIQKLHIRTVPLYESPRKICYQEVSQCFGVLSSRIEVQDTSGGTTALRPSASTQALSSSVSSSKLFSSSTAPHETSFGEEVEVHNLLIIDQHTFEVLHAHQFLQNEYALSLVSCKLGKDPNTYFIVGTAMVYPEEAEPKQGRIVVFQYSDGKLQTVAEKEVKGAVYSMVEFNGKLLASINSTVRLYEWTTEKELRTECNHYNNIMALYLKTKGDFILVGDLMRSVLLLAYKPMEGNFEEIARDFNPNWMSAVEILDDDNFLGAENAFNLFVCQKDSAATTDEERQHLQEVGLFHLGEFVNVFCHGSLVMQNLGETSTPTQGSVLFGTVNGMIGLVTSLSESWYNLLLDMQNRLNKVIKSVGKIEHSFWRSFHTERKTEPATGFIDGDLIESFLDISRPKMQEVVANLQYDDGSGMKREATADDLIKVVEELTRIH
Briefly: IKAROS degradation assay (Western blot, MV-4-11 cells). The conditions noted are these: MV4-11, 6-8 h. A digest of the protocol: (§1)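 MV-4-11 cells (~10^6 cells/mL, RPMI 1640 with 10% FBS) were treated with compound or DMSO for 6-8 h. RIPA whole-cell lysates were run on SDS-PAGE, immunoblotted and detected with IRDye secondaries. % degradation is binned (<25%, 25–50%, 50–75%, ≥75%); CDK9 and CDK16 were tested at two concentrations.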
A general note: Immunoblotting shows a protein as a band on a membrane.

The next assay has as its target T2, CK1α (Homo sapiens, UniProt P48729+Q96SW2).
T2 construct: Whole cell extracts were prepared using RIPA buffer; endogenous in cells; host or cells: MV-4-11
Briefly: CK1α degradation assay (Western blot, MV-4-11 cells). The conditions noted are these: MV4-11, 6-8 h. The gist of the method:
as §1

For the next assay, the system named is IL-2. Briefly: IL-2 fold-change assay, anti-CD3 stimulated PBMCs (Mesoscale). The conditions noted are these: PBMC, PBMCs on anti-human CD3, 24 h, fold difference from the DMSO control. How it is done: For the IL-2 analysis, 96 well plates were precoated with 1 μg/mL anti-human CD3 antibody (OK3, eBioscience Inc., San Diego, Calif.). After washing with PBS, the indicated compound was added (50 μL/well) followed by PBMCs diluted at 3-4 million cells/mL (150 μL/well). Plates were incubated for 24 h and the supernatants collected for Mesoscale IL-2 analysis. IL-2 activity is measured as fold difference from the DMSO control.
In Table 6, the % inhibition values are reported as “A”, “B”, “C”, or “D”. “A” represents a % inhibition value of less than 50% (value <50%). “B” represents a % inhibition value of equal to or more than 50% and less than 70% (50%≤value<70%). “C” represents a % inhibition value of equal to or more than 70% and less than 90% (70%≤value<90%). “D” represents a % inhibition value of equal or more than 90% (value ≥90%). In Table 7, the fold-change values are reported as “A”, “B”, “C”, or “D”. “A” represents a fold-change value of equal to or less than 0.1 (value ≤0.1). “B” represents a fold-change value of more than 0.1 and equal to or less than 0.5 (0.1<value≤0.5). “C” represents a fold-change value of more than 0.5 and equal to or less than 1 (0.5<value≤1). “D” represents a fold-change value of more than 1 (value >1).

The test system of the next assay is IL-1β. Briefly: IL-1β inhibition assay, LPS-induced PBMCs / CD14+ monocytes (Meso Scale). The conditions noted are these: 1 h pretreatment, 100 ng/mL LPS 18-24 h. The gist of the method: (§2)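 Thawed human PBMCs or CD14+ mobilized peripheral blood monocytes, 200,000 cells/well in RPMI-1640/10% FBS, pretreated with compound or DMSO 1 h, then stimulated with 100 ng/mL LPS for 18-24 h. Supernatant cytokine measured by Meso Scale; % inhibition binned A–D (<50%, 50–70%, 70–90%, ≥90%), fold-change binned A–D (≤0.1, ≤0.5, ≤1, >1).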

For another assay, the system named is IL-6. Briefly: IL-6 inhibition assay, LPS-induced PBMCs / CD14+ monocytes (Meso Scale). The conditions noted are these: 1 h pretreatment, 100 ng/mL LPS 18-24 h. A digest of the protocol: as §2
In the next assay the test system is MOLM-13 cells. The experiment in a line: MOLM-13 cell viability assay (CellTiter-Glo). As to conditions: Homo sapiens, MOLM-13, 72 h, 3 days, read-out: MOLM-13 Cell Viability % DMSO at 1 μM. The gist of the method:
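MOLM-13 cells at 2500 cells/well were exposed to compound for 3 days at 37 °C. Viability was read by CellTiter-Glo luminescence and expressed as % of DMSO control, binned A (<50%), B (50–<70%), C (70–<90%) or D (≥90%).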
On the technique in general: In ATP-based viability assays light output follows the ATP content of the culture.

The test system of a further assay is TNF-α. Briefly: TNF-α inhibition assay, LPS-induced PBMCs / CD14+ monocytes (Meso Scale). The conditions noted are these: 1 h pretreatment, 100 ng/mL LPS 18-24 h. A digest of the protocol: as §2
In the next assay the target is T3, GSPT1 (Homo sapiens, UniProt P15170+Q96SW2).
T3 construct: Whole cell extracts were prepared using RIPA buffer; endogenous in cells; host or cells: MV-4-11
T3 sequence (P15170 whole entry): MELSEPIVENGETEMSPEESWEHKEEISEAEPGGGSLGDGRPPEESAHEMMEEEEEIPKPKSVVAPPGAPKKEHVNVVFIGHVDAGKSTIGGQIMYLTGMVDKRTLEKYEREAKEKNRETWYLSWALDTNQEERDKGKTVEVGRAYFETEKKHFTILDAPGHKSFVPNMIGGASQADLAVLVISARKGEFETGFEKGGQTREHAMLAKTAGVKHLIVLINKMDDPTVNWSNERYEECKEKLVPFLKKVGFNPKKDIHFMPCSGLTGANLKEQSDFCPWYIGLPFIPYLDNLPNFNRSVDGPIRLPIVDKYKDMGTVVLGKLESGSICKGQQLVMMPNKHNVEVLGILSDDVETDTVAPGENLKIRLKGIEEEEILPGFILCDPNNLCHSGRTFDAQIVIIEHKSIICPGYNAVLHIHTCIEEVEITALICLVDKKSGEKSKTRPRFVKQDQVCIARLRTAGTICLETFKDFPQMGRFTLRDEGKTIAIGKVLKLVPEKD
T3 sequence (Q96SW2 whole entry): as the sequence (Q96SW2 whole entry) above
T3 sequence (Q16531 whole entry partner): as the sequence (Q16531 whole entry partner) above
The experiment in a line: GSPT1 degradation assay (Western blot, MV-4-11 cells). The conditions noted are these: MV4-11, 6-8 h. A digest of the protocol:
as §1

T2 sequence (P48729 whole entry): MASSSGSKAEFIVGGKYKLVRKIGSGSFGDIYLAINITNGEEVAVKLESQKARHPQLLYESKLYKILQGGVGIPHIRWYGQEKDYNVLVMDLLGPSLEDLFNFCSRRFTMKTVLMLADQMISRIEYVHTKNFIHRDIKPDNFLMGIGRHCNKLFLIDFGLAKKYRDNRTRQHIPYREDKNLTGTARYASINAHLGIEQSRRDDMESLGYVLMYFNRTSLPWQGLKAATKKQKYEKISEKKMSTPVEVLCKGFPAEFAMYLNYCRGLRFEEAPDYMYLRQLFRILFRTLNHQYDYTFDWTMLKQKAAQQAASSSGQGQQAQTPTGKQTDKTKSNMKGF
T2 sequence (Q96SW2 whole entry): as the sequence (Q96SW2 whole entry) above
T2 sequence (Q16531 whole entry partner): as the sequence (Q16531 whole entry partner) above

In the case of `Cn1ncc(-c2nc(N[C@H]3CC[C@H](NCC(=O)NCCOCCOCCOCCNc4cccc5c4CN(C4CCC(=O)NC4=O)C5=O)CC3)ncc2F)c1CC1CC1` (stereo partly shown) [Compound 56, 2-(((1r,4r)-4-((4-(5-(cyclopropylmethyl)-1-methyl-1H-pyrazol-4-yl)-5-fluoropyrimidin-2-yl)amino)cyclohexyl)amino)-N-(2-(2-(2-(2-((2-(2,6-dioxopiperidin-3-yl)-1-oxoisoindolin-4-yl)amino)ethoxy)ethoxy)ethoxy)ethyl)acetamide], the Dmax at 1 µM on IKAROS was in the range of 50 to 75%; on CK1α it was 25 to 50%. Further, the fold induction at 1 µM with IL-2 was ≤ 0.1. Also, the inhibition at 1 µM with IL-1β, in the assay with IL-6 and in the assay with TNF-α was > 90% throughout. For the same compound, in the assay on MOLM-13 cells, the viability at 1 µM is > 90%.
For the compound `Cn1ncc(-c2ncnc(N[C@H]3CC[C@H](NCCCCCCCCNC(=O)NCc4cc5c(s4)C(=O)N(C4CCC(=O)NC4=O)C5)CC3)n2)c1CC1CC1` (stereo partly shown) [Compound 65, 1-(8-(((1r,4r)-4-((4-(5-(cyclopropylmethyl)-1-methyl-1H-pyrazol-4-yl)-1,3,5-triazin-2-yl)amino)cyclohexyl)amino)octyl)-3-((5-(2,6-dioxopiperidin-3-yl)-6-oxo-5,6-dihydro-4H-thieno[2,3-c]pyrrol-2-yl)methyl)urea], the figures for the Dmax at 1 µM on CK1α and on GSPT1 were 50 to 75% and 25 to 50%, respectively. Also, the fold induction at 1 µM in the assay on IL-2 is 0.5 to 1. The inhibition at 1 µM with IL-1β, in the assay on IL-6 and in the assay with TNF-α was < 50% in each case. Moreover, in the assay on MOLM-13 cells, the viability at 1 µM is < 50%.
Turning to `CC(C)(C)c1cnc(CSc2cnc(NC(=O)C3CCN(CCOCCOCCOCCOCCNCC(=O)NCc4scc5c4CN(C4CCC(=O)NC4=O)C5=O)CC3)s2)o1` (stereo not shown) [Compound 58, N-(5-(((5-(tert-butyl)oxazol-2-yl)methyl)thio)thiazol-2-yl)-1-(1-(5-(2,6-dioxopiperidin-3-yl)-4-oxo-5,6-dihydro-4H-thieno[3,4-c]pyrrol-1-yl)-3-oxo-8,11,14,17-tetraoxa-2,5-diazanonadecan-19-yl)piperidine-4-carboxamide], the Dmax at 1 µM at IKAROS was < 25%; at CK1α, ≥ 75%. In the assay with IL-2, the fold induction at 1 µM was in the range of 0.5 to 1. The figures for the inhibition at 1 µM in the assay on IL-1β, with IL-6 and in the assay with TNF-α were > 90%, 70 to 90% and < 50%, respectively. Also, in the assay on MOLM-13 cells, the viability at 1 µM was in the range of 50 to 70%.
Consider `Cn1ncc(-c2nc(N[C@H]3CC[C@H](NC(=O)CCCCCCNCC(=O)Nc4cccc5c4CN([C@H]4CCCC(=O)NC4=O)C5=O)CC3)ncc2Cl)c1CC1CC1` [Compound 9, N-((1r,4r)-4-((5-chloro-4-(5-(cyclopropylmethyl)-1-methyl-1H-pyrazol-4-yl)pyrimidin-2-yl)amino)cyclohexyl)-7-((2-((2-((S)-2,7-dioxoazepan-3-yl)-1-oxoisoindolin-4-yl)amino)-2-oxoethyl)amino)heptanamide], for which the Dmax at 1 µM at CK1α is < 25%; on GSPT1, 50 to 75%. The fold induction at 1 µM in the assay on IL-2 was in the range of 0.5 to 1. In addition, the values for the inhibition at 1 µM in the assay with IL-1β, in the assay with IL-6 and in the assay on TNF-α were 50 to 70%, < 50% and 50 to 70%, respectively. In the assay with MOLM-13 cells, the viability at 1 µM is < 50%.
At CK1α, `CC(C)(C)c1cnc(CSc2cnc(NC(=O)C3CCN(CC(=O)NCCOCCNC(=O)NCc4cc5c(s4)C(=O)N(C4CCC(=O)NC4=O)C5)CC3)s2)o1` (stereo not shown) [Compound 3, 3-{8-Oxo-3-[(3-{2-[2-(2-{4-[(5-{[5-(tert-butyl)-1,3-oxazol-2-yl]methylthio}-1,3-thiazol-2-ylamino)carbonyl]-1-piperidyl}acetylamino)ethoxy]ethyl}ureido)methyl]-2-thia-7-azabicyclo[3.3.0]octa-1(5),3-dien-7-yl}-2,6-piperidinedione] gave a Dmax at 1 µM of 25 to 50%. Also, the fold induction at 1 µM in the assay with IL-2 was 0.1 to 0.5. In addition, the inhibition at 1 µM is > 90% with IL-1β, > 90% with IL-6 and 70 to 90% in the assay on TNF-α. The viability at 1 µM with MOLM-13 cells was > 90%.
